# Assay: Solubility of CBD in mineral oil
# Assay type: physicochemical
# Source text: Cannabidiol content. As discussed above, the matrices and TTDs of the present disclosure are advantageously formulated with a “saturated-plus-excess” concentration of CBD. The solubility of CBD in mineral oil (and by extension a PIB/mineral oil blend since PIB and mineral oil have the same solubility) is 4% (w/w). The amount of CBD in the matrix should be at least twofold, e.g., at least threefold, at least fourfold, or at least fivefold more CBD than the maximum concentration of CBD that dissolves in the plasticizer (e.g., mineral oil). The amount of CBD in the matrix can be any amount from about 10% (w/w) to about 30% (w/w) of the matrix, for example about 12.0% (w/w), about 12.5% (w/w), about 13.0% (w/w), about 13.5% (w/w), about 14.0% (w/w), about 14.5% (w/w), about 15.0% (w/w), about 15.5% (w/w), about 16.0% (w/w), about 16.5% (w/w), about 17.0% (w/w), about 17.5% (w/w), about 18.0% (w/w), about 18.5% (w/w), about 19.0% (w/w), about 19.5% (w/w), about 20.0% (w/w), or about 20.5% (w/w) of the matrix. The amount of cannabinoids other than CBD should be less than about 10% (w/w), for example less than about 1% (w/w).
compound,measurement,value
"C=C(C)[C@@H]1CCC(C)=C[C@H]1c1c(O)cc(CCCCC)cc1O [CBD, cannabidiol]",solubility of CBD in mineral oil (and by extension a PIB/mineral oil blend),4 % (w/w)

# Source: US12370149B1, “Transdermal cannabidiol delivery device” (ZHI Technologies, Inc., priority 2024, dated 2025)
